Assay [1] has as its target T1, Bile salt-activated lipase (Bos taurus, UniProt P30122).
T1 sequence (P30122 whole entry): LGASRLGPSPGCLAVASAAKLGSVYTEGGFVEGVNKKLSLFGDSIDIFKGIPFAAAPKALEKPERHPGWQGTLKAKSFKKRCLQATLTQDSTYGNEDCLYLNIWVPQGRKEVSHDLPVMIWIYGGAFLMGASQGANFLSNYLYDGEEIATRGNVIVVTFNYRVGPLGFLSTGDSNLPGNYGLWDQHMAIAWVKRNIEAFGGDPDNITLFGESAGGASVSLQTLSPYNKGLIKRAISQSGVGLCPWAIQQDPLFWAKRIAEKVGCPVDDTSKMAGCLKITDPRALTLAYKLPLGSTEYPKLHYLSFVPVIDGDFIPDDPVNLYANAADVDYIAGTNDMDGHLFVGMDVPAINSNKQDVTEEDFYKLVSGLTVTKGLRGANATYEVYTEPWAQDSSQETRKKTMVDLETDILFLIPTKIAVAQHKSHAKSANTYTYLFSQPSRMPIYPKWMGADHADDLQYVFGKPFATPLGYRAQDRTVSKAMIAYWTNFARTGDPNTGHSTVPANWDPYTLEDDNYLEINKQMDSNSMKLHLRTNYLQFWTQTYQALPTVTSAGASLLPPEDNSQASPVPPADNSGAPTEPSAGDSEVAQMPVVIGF
Description: Inhibitory activity against bovine pancreatic CEase in presence of pNPB chromogenic substrate by spectrophotometry

A further assay has as its target Acetylcholinesterase (Electrophorus electricus, UniProt O42275).

What is called Ki is a measure of affinity in units of concentration, obtained from inhibition or displacement. What is called IC50 is the concentration that inhibits the measured activity by half.

SMILES strings stand for the structures. A value given as a limit tells only on which side of the number the result lay.

Sequence of Acetylcholinesterase (O42275 whole entry): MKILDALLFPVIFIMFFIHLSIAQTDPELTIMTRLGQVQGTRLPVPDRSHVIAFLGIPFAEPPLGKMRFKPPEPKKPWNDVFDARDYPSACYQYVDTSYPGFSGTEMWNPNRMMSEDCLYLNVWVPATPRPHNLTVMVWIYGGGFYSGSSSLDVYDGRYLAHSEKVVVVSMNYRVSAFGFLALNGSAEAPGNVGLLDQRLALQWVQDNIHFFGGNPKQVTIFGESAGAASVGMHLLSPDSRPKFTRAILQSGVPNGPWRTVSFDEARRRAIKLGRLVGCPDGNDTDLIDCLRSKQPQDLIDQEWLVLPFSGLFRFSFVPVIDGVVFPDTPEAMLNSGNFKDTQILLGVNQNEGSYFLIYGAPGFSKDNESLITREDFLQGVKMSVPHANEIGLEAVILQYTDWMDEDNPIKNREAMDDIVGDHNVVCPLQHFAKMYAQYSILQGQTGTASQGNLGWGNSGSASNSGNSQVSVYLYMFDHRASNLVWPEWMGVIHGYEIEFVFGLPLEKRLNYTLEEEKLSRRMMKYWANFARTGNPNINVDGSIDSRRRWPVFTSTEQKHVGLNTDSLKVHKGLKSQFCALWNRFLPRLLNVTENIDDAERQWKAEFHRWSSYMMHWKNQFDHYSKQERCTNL
Description for Acetylcholinesterase: Inhibitory activity AChE from Electrophorus electricus using ATCh substrate and DTNB by spectrophotometry

Consider `O=c1oc(N2CCOCC2)nc2sc3c(c12)CCN(Cc1ccccc1)C3`, for which the inhibition constant (Ki) in assay [1] is above 50 µM. At Acetylcholinesterase, this compound had an IC50 of 0.77 µM.

Regarding `CCN1CCc2c(sc3nc(N(C)C)oc(=O)c23)C1`, the Ki in assay [1] was above 50 µM. The half-maximal inhibitory concentration (IC50) against Acetylcholinesterase came out at 10.5 µM.

`CN(C)c1nc2sc3c(c2c(=O)o1)CCSC3`: the Ki in assay [1] stood at 5.76 µM. This compound also gave an IC50 against Acetylcholinesterase above 50 µM.

As for `CC(C)CN1CCc2c(sc3nc(N(C)C)oc(=O)c23)C1`, the Ki in assay [1] was above 50 µM; on Acetylcholinesterase, 0.66 µM. Moreover, the midpoint of inhibition against Acetylcholinesterase, the IC50, lay at 0.36 µM.

Turning to `CN(C)c1nc2sc3c(c2c(=O)o1)CCN(Cc1ccccc1)C3`, in assay [1], the inhibition constant Ki was above 50 µM. On Acetylcholinesterase, this compound returned a 50% inhibitory concentration (IC50) of 0.89 µM and an inhibition constant Ki of 1.7 µM.

For `O=c1oc(N2CCN(Cc3ccccc3)CC2)nc2sc3c(c12)CCN(Cc1ccccc1)C3`, the inhibition constant Ki in assay [1] was above 50 µM. The IC50 at Acetylcholinesterase stood at 1.32 µM.

For the compound `CN1CCc2c(sc3nc(N(C)C)oc(=O)c23)C1`, the inhibition constant Ki in assay [1] is above 50 µM. In addition, at Acetylcholinesterase, the half-maximal inhibitory concentration (IC50) turned out to be 38.9 µM.

For the compound `Nc1nc2sc3c(c2c(=O)s1)CCN(Cc1ccccc1)C3`, in assay [1], the Ki is above 50 µM. For the same compound, the 50% inhibitory concentration (IC50) at Acetylcholinesterase was determined as 1.2 µM.

As to `CC(C)Nc1nc2sc3c(c2c(=O)o1)CCN(Cc1ccccc1)C3`, the inhibition constant (Ki) in assay [1] was above 50 µM. Also, the IC50 against Acetylcholinesterase stood at 0.74 µM.

Consider `CN(C)c1nc2sc3c(c2c(=O)o1)CCN(C(=O)c1ccccc1)C3`, for which the Ki in assay [1] was above 50 µM. The IC50 against Acetylcholinesterase stood at 35.6 µM.

As for `O=c1oc(NC2CCCCC2)nc2sc3c(c12)CCN(Cc1ccccc1)C3`, the Ki in assay [1] was above 50 µM.

As to `CC(C)Nc1nc2sc3c(c2c(=O)s1)CCN(Cc1ccccc1)C3`, in assay [1], the Ki was above 50 µM. For the same compound, at Acetylcholinesterase, half-maximal inhibition (IC50) required 0.58 µM.

Take `CCN(CC)c1nc2sc3c(c2c(=O)o1)CCC3`: the Ki in assay [1] was determined as 0.58 µM. Besides, the 50% inhibitory concentration (IC50) at Acetylcholinesterase is above 50 µM.

Regarding `CCN(CC)c1nc2sc3c(c2c(=O)o1)C(C)CCC3` (stereo not drawn), the Ki in assay [1] was 1.64 µM. This compound also showed a concentration for half-maximal inhibition (IC50) against Acetylcholinesterase above 50 µM.

As to `CCN(CC)c1nc2scc(C)c2c(=O)o1`, the inhibitory constant (Ki) in assay [1] was found to be 15 µM. The same compound returned an IC50 against Acetylcholinesterase above 50 µM.

Consider `CCN(CC)c1nc2sc3ccccc3c2c(=O)o1`, for which, in assay [1], the Ki came out at 7.5 µM. The half-maximal inhibitory concentration (IC50) against Acetylcholinesterase is above 50 µM.

`CCN(CC)c1nc2sc(C(N)=O)c(C)c2c(=O)o1`: the Ki in assay [1] is above 50 µM. At Acetylcholinesterase, this compound returned an IC50 above 50 µM.

Take `O=c1sc(NC2CCCCC2)nc2sc3c(c12)CCN(Cc1ccccc1)C3`: in assay [1], the Ki is above 50 µM. At Acetylcholinesterase, the IC50 is 2.82 µM.

On to `O=c1sc(Nc2ccccc2)nc2sc3c(c12)CCN(Cc1ccccc1)C3`, for which the Ki in assay [1] is above 50 µM. The compound further came in with an IC50 against Acetylcholinesterase of 1.03 µM.

Consider `O=C(Nc1nc2sc3c(c2c(=O)o1)CCN(Cc1ccccc1)C3)c1ccccc1`, for which the inhibition constant (Ki) in assay [1] is above 50 µM. The same compound gave a half-inhibitory concentration (IC50) against Acetylcholinesterase of 2.86 µM.

Consider `O=C(Nc1nc2sc3c(c2c(=O)s1)CCN(Cc1ccccc1)C3)c1ccccc1`, for which the Ki in assay [1] is above 50 µM. Also, 5.2 µM corresponded to half-maximal inhibition against Acetylcholinesterase (IC50).

On to `COc1ccc(CN(C)c2nc3sc4c(c3c(=O)o2)CCN(Cc2ccccc2)C4)cc1OC`, for which, in assay [1], the inhibitory constant (Ki) is above 50 µM. Moreover, on Acetylcholinesterase, the midpoint of inhibition, the IC50, lay at 0.33 µM.

As for `CN(C)c1nc2sc3c(c2c(=O)o1)CCOC3`, the inhibitory constant (Ki) in assay [1] is above 50 µM. On Acetylcholinesterase, this compound returned a concentration for half-maximal inhibition (IC50) above 50 µM.

Regarding `CN(C)c1nc2sc3c(c2c(=O)o1)CCC3`, the inhibition constant Ki in assay [1] was determined as 0.63 µM. The compound further gave an IC50 at Acetylcholinesterase above 50 µM.

Turning to `CCN(CC)c1nc2sc3c(c2c(=O)o1)CCCC3`, the Ki in assay [1] amounted to 1.86 µM. Also, the IC50 at Acetylcholinesterase is above 50 µM.

On to `O=c1oc(N2CCOCC2)nc2sc3c(c12)CCCC3`, for which, in assay [1], the Ki is 5.7 µM. The same compound gave an IC50 on Acetylcholinesterase above 50 µM.

As for `Nc1nc2sc3c(c2c(=O)o1)CCN(Cc1ccccc1)C3`, the inhibition constant Ki in assay [1] is above 50 µM. Besides, at Acetylcholinesterase, the midpoint of inhibition, the IC50, lay at 5.9 µM.

Regarding `CCN(CC)c1nc2scc(C(C)C)c2c(=O)o1`, the inhibition constant (Ki) in assay [1] was found to be 6.4 µM. For the same compound, on Acetylcholinesterase, the 50% inhibitory concentration (IC50) is above 50 µM.

`O=c1oc(Nc2ccccc2)nc2sc3c(c12)CCN(Cc1ccccc1)C3`: the inhibition constant (Ki) in assay [1] is above 50 µM. Also, at Acetylcholinesterase, the IC50 stood at 0.94 µM.

On to `CCN(CC)c1nc2sc3c(c2c(=O)o1)CCCCC3`, for which the Ki in assay [1] worked out at 6 µM. The same compound returned an IC50 at Acetylcholinesterase above 50 µM.

As to `CN(Cc1ccccc1)c1nc2sc3c(c2c(=O)o1)CCN(Cc1ccccc1)C3`, in assay [1], the Ki is above 50 µM. This compound yielded a 50% inhibitory concentration (IC50) on Acetylcholinesterase of 0.84 µM.

Consider `CCN(CC)c1nc2sc(C)c(C)c2c(=O)o1`, for which the inhibitory constant (Ki) in assay [1] was found to be 4.3 µM. Also, the half-inhibitory concentration (IC50) at Acetylcholinesterase was above 50 µM.

`CC(C)Nc1nc2sc3c(c2c(=O)o1)CCCC3`: the Ki in assay [1] was above 50 µM. This compound returned a 50% inhibitory concentration (IC50) at Acetylcholinesterase above 50 µM.

As for `CN(c1nc2sc3c(c2c(=O)o1)CCCC3)C1CCCCC1`, in assay [1], the inhibition constant Ki was found to be 18 µM. The compound also gave an IC50 against Acetylcholinesterase above 50 µM.

`CCN(CC)c1nc2sc3c(c2c(=O)o1)CCN(Cc1ccccc1)C3`: the Ki in assay [1] is above 50 µM. Besides, it took 2.08 µM to reach half-maximal inhibition on Acetylcholinesterase (IC50).

As for `CN(C)c1nc2sc3c(c2c(=O)o1)CCCC3`, the Ki in assay [1] came to 2.15 µM. On Acetylcholinesterase, the IC50 is above 50 µM.
